Assay results reported in article PMC11726555, “Photoswitchable Diazocine Derivative for Adenosine A3 Receptor Activation in Psoriasis” (Journal of the American Chemical Society, 2024).

Columns and labels:
Type in all cases: cell-based
[1] = biological target: T1, A1R (adenosine A1 receptor) (Homo sapiens, UniProt P30542); experiment: cAMP accumulation assay in HEK-293 cells expressing A1R (reference agonist)
T1 construct: gene ADORA1
T1 sequence (P30542 1-326): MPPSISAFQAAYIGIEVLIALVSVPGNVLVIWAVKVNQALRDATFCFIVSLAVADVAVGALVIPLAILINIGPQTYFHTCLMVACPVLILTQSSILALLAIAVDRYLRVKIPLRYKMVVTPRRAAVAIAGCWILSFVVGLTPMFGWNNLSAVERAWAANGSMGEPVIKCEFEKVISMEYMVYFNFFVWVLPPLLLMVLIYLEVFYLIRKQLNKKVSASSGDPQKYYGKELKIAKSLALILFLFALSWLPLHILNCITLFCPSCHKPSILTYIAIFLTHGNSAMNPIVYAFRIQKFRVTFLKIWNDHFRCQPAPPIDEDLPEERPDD

[2] = biological target: T2, adenosine A3 receptor (A3R) (Homo sapiens, UniProt P0DMS8); experiment: cAMP accumulation assay in HEK-293 cells expressing A3R (reference agonist)
T2 construct: gene ADORA3
T2 sequence (P0DMS8 1-318): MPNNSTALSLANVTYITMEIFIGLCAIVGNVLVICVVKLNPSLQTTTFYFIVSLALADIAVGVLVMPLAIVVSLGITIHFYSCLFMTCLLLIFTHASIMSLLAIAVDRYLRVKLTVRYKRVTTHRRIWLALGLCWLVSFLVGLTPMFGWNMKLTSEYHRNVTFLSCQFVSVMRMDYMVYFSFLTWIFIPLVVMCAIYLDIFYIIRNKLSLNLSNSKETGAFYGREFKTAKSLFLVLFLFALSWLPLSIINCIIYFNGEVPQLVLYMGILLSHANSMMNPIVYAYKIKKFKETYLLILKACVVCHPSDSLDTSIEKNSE

[3] = biological target: T2, adenosine A3 receptor (A3R); experiment: inhibition of forskolin-stimulated cAMP accumulation in HEK-293 cells expressing A3R (partial agonist, Emax […]); settings: read-out: IC50 (the source's name)

OC[C@H]1O[C@@H](n2cnc3c(NC4CCCC4)ncnc32)[C@H](O)[C@@H]1O [CPA]
cAMP accumulation assay in HEK-293 cells expressing A1R (reference agonist) [1]: CPA (N^6-cyclopentyladenosine, selective A1R agonist) induced the maximum A3R- and A1R-mediated inhibition of cAMP accumulation

CNC(=O)[C@@]12C[C@@H]1[C@@H](n1cnc3c(NCc4cccc(Cl)c4)nc(C#Cc4ccc(F)c(F)c4)nc31)[C@H](O)[C@@H]2O [MRS5698, (1S,2R,3S,4R,5S)-4-(6-((3-chlorobenzyl)amino)-2-((3,4-difluorophenyl)-ethynyl)-9H-purin-9-yl)-2,3-dihydroxy-N-methylbicyclo[3.1.0]hexane-1-carboxamide]
cAMP accumulation assay in HEK-293 cells expressing A3R (reference agonist) [2]: treatment with MRS5698 and CPA (N^6-cyclopentyladenosine, selective A1R agonist) induced the maximum A3R- and A1R-mediated inhibition of cAMP accumulation

CNC(=O)[C@H]1O[C@@H](n2cnc3c(NCc4ccc5c(c4)/N=N/c4ccccc4CC5)ncnc32)[C@H](O)[C@@H]1O [compound 4, E-MRS7787]
EC50 [3]: 31 nM
